Reference: patent EP0379351A1, “1,4-Dihydropyridine derivatives” (SYNPHAR LABORATORIES INC., priority 1989, dated 1990)
Like-named read-outs stand apart in the source and are kept apart here. Values belong to the molecule of their own block, whether it stands above or below them.

What was measured:
[1] = General pharmacological screening: anti-inflammatory activity; conditions: result in words
[2] = system: guinea pig ileal longitudinal smooth muscle; assay: Calcium channel antagonist testing: inhibition of carbachol-induced, muscarinic receptor-mediated Ca2+-dependent contraction of smooth muscle; assay type: cell-based; conditions: for relative potency compared with Nifedipine: calcium antagonist in smooth muscle, Nifedipine = 1
From the text: The compounds of this invention of formulae I and II are suitably prepared, applying modified Hantzsch pyridine synthesis, by reacting the appropriately substituted heterocyclic alkyl acetoacetate or substituted heterocyclic mercapto alkyl acetoacetate with a substituted benzaldehyde derivative and methyl-β-aminocrotonate in isopropanol. The compounds of formula III are suitably prepared by reacting diketene or an alkyldiketene with an appropriately substituted heterocyclic ω-alkanol or substituted heterocyclic mercapto ω-alkanol in benzene. The related sulfoxy and sulfonyl derivatives of formula VI may be prepared by oxidizing the relative mercapto derivative with m-chloroperbenzoic acid in CH₂Cl₂ followed, if required, by further oxidation with potassium permanganate in acetic acid. All the products in this invention are characterized by their respective nmr, ir spectra and their elemental analysis. The relative purity has been determined by HPLC. Calcium antagonistic activity of the compounds was determined at the concentration required to produce 50% inhibition of the muscarinic receptor-mediated Ca²⁺-dependent contraction of guinea pig ileal longitudinal smooth muscle assay.
Calcium channel antagonist activity was determined as the concentration required to produce 50% inhibition of the muscarinic receptor-mediated Ca⁺²-dependent contraction of guinea pig ileal longitudinal smooth muscle assay (C. Triggle, V. Swamy and D. Triggle, Can. J. Physiol. Pharmacol., 1979, 57, 804). Male albino guinea pigs (body weight 300 - 450g) were sacrificed by decapitation. The intestine was removed above the ileocaecal junction. Longitudinal smooth muscle segments of 2cm length were mounted under a resting tension of 300 - 400 mg. The segments were maintained at 37°C in a 10mL jacketed organ bath containing oxygenated (100% O₂) physiological saline solution of the following composition (mM): NaCl: 137; CaCl₂: 2.6; KCl: 5.9; MgCl₂: 1.2; glucose: 11.9; buffered by Hepes-NaOH to pH 7.4. The muscles were equilibrated for 1h with a solution change every 15 min. Two successive control contractions were elicited at 15 min. intervals with 5x10⁻⁷M carbachol. The isometric contractions were recorded with a force displacement transducer (FT 03C) on a GRASS* physiograph. The means of the […] contractile responses was taken as the 100% value for the tonic (slow) component of the response. The muscle was washed with Hepes saline solution and was allowed to re-equilibrate. The calcium antagonist (test compound) was added ten min before the dose-response for carbachol was determined. The drug-induced inhibition of contraction was expressed as percent of control. The ID₅₀ values were graphically determined from the concentration-response curves, in triplicate.

[3] = system: heart muscle; assay: Ionotropic effect and heart rate on heart muscle; assay type: cell-based; conditions: for heart contractile force / heart rate: at the concentrations which normally exhibit the Ca-blocking effect in smooth muscles; for positive ionotropic effect on the heart muscle: same concentration as smooth muscle relaxant (IC50 concentration; 3.25 x 10⁻⁹M for Compound 11)
[4] = system: angiotensin; assay: In-vitro angiotensin inhibitory activity; assay type: biochemical; conditions: for angiotensin inhibitory activity: general pharmacological screening, result in words
[5] = General pharmacological screening: anti-ulcer stressic activity; conditions: result in words
[6] = system: LTD₄; assay: General pharmacological screening: LTD4 antagonistic activity; conditions: result in words
[7] = system: SHR Rat; assay: Blood pressure and heart rate in SHR Rat; assay type: in vivo; conditions: 0.2mg/Kg
[8] = system: heart muscle; conditions: in the concentration of its smooth muscle calcium channel blocking effectiveness; cited from earlier work
[9] = Cavia porcellus, read-out: IC₅₀ as a calcium antagonist in smooth muscle
[10] = Cavia porcellus, exponent (x 10⁻⁹), carbachol 5x10⁻⁷M, tonic component, triplicate, read-out: calcium channel antagonist act., inhib. act. on contractile Response to CD ID₅₀

Compound: COC(=O)C1=C(C)NC(C)=C(C(=O)OCCCCCCn2nc(C)cc2C)C1c1cccc([N+](=O)[O-])c1 (centres unmarked)
- anti-inflammatory activity [1]: very strong

Compound: COC(=O)C1=C(C)NC(C)=C(C(=O)OCCCCCCS(=O)(=O)c2nc(C)cs2)C1c1cccc([N+](=O)[O-])c1 (centres unmarked) [listing 1 of 2 here]
- IC50 [2, 9]: 5.57 nM

Compound: COC(=O)C1=C(C)NC(C)=C(C(=O)OCCCCCCS(=O)(=O)c2nc(C)cs2)C1c1cccc([N+](=O)[O-])c1 (centres unmarked) [listing 2 of 2 here]
- heart contractile force [3]: increase the heart contractile force
- heart rate [3]: without changing the heart rate

Compound: COC(=O)C1=C(C)NC(C)=C(C(=O)OCCCCCCCc2cc(C)no2)C1c1cccc([N+](=O)[O-])c1 (centres unmarked)
- angiotensin inhibitory activity [4]: very strong
- anti-ulcer stressic activity [5]: very strong
- LTD₄ antagonistic activity [6]: very strong

Compound: COC(=O)C1=C(C)NC(C)=C(C(=O)OCCCCCCCc2nc(C)cs2)C1c1cccc(C(F)(F)F)c1 (centres unmarked)
- anti-inflammatory activity [1]: very strong

Compound: COC(=O)C1=C(C)NC(C)=C(C(=O)OCCCCCCCc2nc(C)cs2)C1c1cccc(Cl)c1 (centres unmarked)
- angiotensin inhibitory activity [4]: very strong
- anti-ulcer stressic activity [5]: very strong
- LTD₄ antagonistic activity [6]: very strong

Compound: COC(=O)C1=C(C)NC(C)=C(C(=O)OCCCCCCS(=O)(=O)c2nc(C)cs2)C1c1cccc([N+](=O)[O-])c1 (centres unmarked) [3-[6-(4-methylthiazol-2-yl)sulfonylhexyloxycarbonyl]-5-metho]
- positive ionotropic effect on the heart muscle [3]: about 22%
- relative potency compared with Nifedipine [2]: 2.5

Compound: C[C@H](CS)C(=O)N1CCC[C@H]1C(=O)O [Captopril, reference compound]
- Percent Inhibition ([4]; Concentration 0.05 µg/ml): 69%

Compound: COC(=O)C1=C(C)NC(C)=C(C(=O)OCCCCCCCc2nc(C)cs2)C1c1cccc(C(F)(F)F)c1 (centres unmarked) [Compound 13, 3-[7-(4-methylthiazol-2-yl)heptyloxycarbonyl]-5-methoxycarbonyl-2,6-dimethyl-4-(3-trifluoromethylphenyl)-1,4-dihydropyridine]
- Percent Inhibition ([4]; Concentration 0.1 µg/ml): 80%

Compound: CCOC(=O)C1=C(C)NC(C)=C(C(=O)OC)C1c1cccc(Cl)c1Cl (centres unmarked) [Felodipine, 3-ethoxycarbonyl-5-methoxycarbonyl-4-(2,3-dichlorophenyl)-2,6-dimethyl-1,4-dihydropyridine]
- effect on the heart [8]: no effect on the heart

Continued, in another order:

- IC50 [2, 9]: 3.25 ± 0.33 nM
Compound: COC(=O)C1=C(C)NC(C)=C(C(=O)OCCCCCCCc2nc(C)cs2)C1c1cccc([N+](=O)[O-])c1 (centres unmarked)
- heart contractile force [3]: increase the heart contractile force
- heart rate [3]: without changing the heart rate
- relative potency compared with Nifedipine [2]: 4.3

- IC50 [2, 10]: 3.84 nM
Compound: COC(=O)C1=C(C)NC(C)=C(C(=O)OCCCCCCCc2cc(C)no2)C1c1cccc([N+](=O)[O-])c1 (centres unmarked) [Compound 1, 3-[7-(3-methylisoxazol-5-yl)heptyloxycarbonyl]-5-methoxycarbonyl-2,6-dimethyl-4-(3-nitrophenyl)-1,4-dihydropyridine]
- Percent Inhibition ([4]; Concentration 0.01 µg/ml): 93%
- Percent Inhibition ([4]; concentration of 0.0025 µg): 60%

- IC50 ([2]; exponent (x 10⁻⁹), carbachol 5x10⁻⁷M, tonic component, triplicate, read-out: calcium channel antagonist act., inhib. act. on contractile Response to CD ID₅₀): 5.13 nM
Compound: COC(=O)C1=C(C)NC(C)=C(C(=O)OCCCCCCCc2cc(C)no2)C1c1cccc(C(F)(F)F)c1 (centres unmarked) [Compound 3, 3-[7-(3-mehylisoxazol-5-yl)heptyloxycarbonyl]-5-methoxycarbonyl-2,6-dimethyl-4-(3-trifluoromethylphenyl)-1,4-dihydropyridine]

- IC50 [2, 10]: 6.24 nM
Compound: COC(=O)C1=C(C)NC(C)=C(C(=O)OCCCCCCn2nc(C)cc2C)C1c1cccc([N+](=O)[O-])c1 (centres unmarked) [Compound 5, 3-[6-(3,5-dimethylpyrazol-1-yl)hexyloxycarbonyl]-5-methoxycarbonyl-2,6-dimethyl-4-(3-nitrophenyl)-1,4-dihydropyridine]
- Percent Inhibition ([4]; Concentration 0.01 µg/ml): 95%
- Percent Inhibition ([4]; concentration of 0.001 µg): 58%

- IC50 [2, 10]: 3.25 nM
Compound: COC(=O)C1=C(C)NC(C)=C(C(=O)OCCCCCCCc2nc(C)cs2)C1c1cccc([N+](=O)[O-])c1 (centres unmarked) [Compound 11, 3-[7-(4-methylthiazol-2-yl)heptyloxycarbonyl]-5-methoxycarbonyl-2,6-dimethyl-4-(3-nitrophenyl)-1,4-dihydropyridine]
- drop in blood pressure [7]: 19%
- heart rate [7]: without changing the heart rate
- period of drop in blood pressure [7]: 9 h
- positive ionotropic effect on the heart muscle [3]: about 12%

- IC50 [2, 10]: 6.25 nM
Compound: COC(=O)C1=C(C)NC(C)=C(C(=O)OCCCCCCCc2nc(C)cs2)C1c1cccc(Cl)c1 (centres unmarked) [Compound 15, 3-[7-(4-methylthiazol-2-yl)heptyloxycarbonyl]-5-methoxycarbonyl-2,6-dimethyl-4-(3-chlorophenyl)-1,4-dihydropyridine]
- Percent Inhibition ([4]; Concentration 0.1 µg/ml): 64%

- IC50 ([2]; Cavia porcellus, exponent printed in neighbouring spread cell (x 10⁻⁸), carbachol 5x10⁻⁷M, tonic component, triplicate, read-out: calcium channel antagonist act., inhib. act. on contractile Response to CD ID₅₀): 48.1 nM
Compound: COC(=O)C1=C(C)NC(C)=C(C(=O)OCCCCCCCc2nc(C)cs2)C1c1cccc(Cl)c1Cl (centres unmarked) [Compound 17, 3-[7-(4-methylthiazol-2-yl)heptyloxycarbonyl]-5-methoxycarbonyl-2,6-dimethyl-4-(2,3-dichlorophenyl)-1,4-dihydropyridine]

- IC50 [2, 10]: 5.48 nM
Compound: COC(=O)C1=C(C)NC(C)=C(C(=O)OCCCCCCSc2nc(C)cs2)C1c1cccc([N+](=O)[O-])c1 (centres unmarked) [Compound 18, 3-[6-(4-methylthiazol-2-yl)thiohexyloxycarbonyl]-5-methoxycarbonyl-2,6-dimethyl-4-(3-nitrophenyl)-1,4-dihydropyridine]

- IC50 [2, 10]: 5.81 nM
Compound: COC(=O)C1=C(C)NC(C)=C(C(=O)OCCCCCCS(=O)(=O)c2nc(C)cs2)C1c1cccc([N+](=O)[O-])c1 (centres unmarked) [Compound 19, 3-[6-(4-methylthiazol-2-yl)sulfonylhexyloxycarbonyl]-5-methoxycarbonyl-2,6-dimethyl-4-(3-nitrophenyl)-1,4-dihydropyridine]
- positive ionotropic effect on the heart muscle [3]: 25%
